The target of assay [1] is Ephrin type-A receptor 4 (Homo sapiens) (UniProt P54764). Briefly: Binding affinity to EphA4-LBD (unknown origin) at 40 uM by isothermal titration calorimetry. Background: In ITC the heat of successive injections is recorded.
The target in assay [2] is Ephrin type-A receptor 4 (Mus musculus) (UniProt Q03137). Briefly: Induction of EphA4 phosphorylation in C57BL/6 mouse Primary cortical neuron at 1 to 10 uM incubated for 30 mins by immunoprecipitation based Western blot analysis. In kind it is cell-based. As to conditions: dose 1-10 µM. In general terms: In western blotting, separated proteins are transferred to a membrane and probed.

Active and inactive are the calls of the source. No cut-off for these calls is given here. Numbered stars: 1 amine (or outer) side, 2 acyl side, 3 side chain; on linkers, the order of the positions; unused ones are H or OH. Square brackets hold non-standard residues; d marks the D form. Peptide text beside a SMILES is read from it. Azetidine3carboxylic = O=C(C1CN([*:1])C1)[*:2]; βPro(3R) = O=C([C@@H]1CCN([*:1])C1)[*:2]; βPro(3S) = O=C([C@H]1CCN([*:1])C1)[*:2]; X2 = O=C([C@H]1CCCN([*:1])C1)[*:2]; βAla = NCCC(=O)O

Chain of Ephrin type-A receptor 4 (Homo sapiens) (P54764 whole entry, the tested form may be a part): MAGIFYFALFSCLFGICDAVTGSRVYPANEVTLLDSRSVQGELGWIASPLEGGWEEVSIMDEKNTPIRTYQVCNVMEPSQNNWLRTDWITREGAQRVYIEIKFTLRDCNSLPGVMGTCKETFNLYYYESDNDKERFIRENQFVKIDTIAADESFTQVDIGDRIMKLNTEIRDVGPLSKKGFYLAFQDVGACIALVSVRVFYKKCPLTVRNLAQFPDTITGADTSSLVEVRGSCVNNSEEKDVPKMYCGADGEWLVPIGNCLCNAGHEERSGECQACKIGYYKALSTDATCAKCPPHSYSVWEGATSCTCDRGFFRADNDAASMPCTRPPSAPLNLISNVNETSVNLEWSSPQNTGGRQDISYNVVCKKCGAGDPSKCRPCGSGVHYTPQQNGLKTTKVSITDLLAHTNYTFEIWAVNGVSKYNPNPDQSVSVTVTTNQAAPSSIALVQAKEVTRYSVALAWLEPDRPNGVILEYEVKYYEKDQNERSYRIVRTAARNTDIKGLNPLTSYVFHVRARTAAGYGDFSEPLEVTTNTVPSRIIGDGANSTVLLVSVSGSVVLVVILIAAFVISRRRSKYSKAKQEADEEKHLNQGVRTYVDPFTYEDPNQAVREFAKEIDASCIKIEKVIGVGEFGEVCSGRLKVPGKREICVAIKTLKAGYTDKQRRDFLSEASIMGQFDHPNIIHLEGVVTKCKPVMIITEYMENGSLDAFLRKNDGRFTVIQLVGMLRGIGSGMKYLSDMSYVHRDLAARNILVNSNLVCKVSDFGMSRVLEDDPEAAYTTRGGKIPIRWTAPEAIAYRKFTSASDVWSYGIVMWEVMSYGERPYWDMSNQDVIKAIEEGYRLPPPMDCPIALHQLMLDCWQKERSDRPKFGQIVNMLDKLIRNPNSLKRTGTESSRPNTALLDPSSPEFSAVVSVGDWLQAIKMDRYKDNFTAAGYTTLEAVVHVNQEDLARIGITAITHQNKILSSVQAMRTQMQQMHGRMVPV
Chain of Ephrin type-A receptor 4 (Mus musculus) (Q03137 whole entry): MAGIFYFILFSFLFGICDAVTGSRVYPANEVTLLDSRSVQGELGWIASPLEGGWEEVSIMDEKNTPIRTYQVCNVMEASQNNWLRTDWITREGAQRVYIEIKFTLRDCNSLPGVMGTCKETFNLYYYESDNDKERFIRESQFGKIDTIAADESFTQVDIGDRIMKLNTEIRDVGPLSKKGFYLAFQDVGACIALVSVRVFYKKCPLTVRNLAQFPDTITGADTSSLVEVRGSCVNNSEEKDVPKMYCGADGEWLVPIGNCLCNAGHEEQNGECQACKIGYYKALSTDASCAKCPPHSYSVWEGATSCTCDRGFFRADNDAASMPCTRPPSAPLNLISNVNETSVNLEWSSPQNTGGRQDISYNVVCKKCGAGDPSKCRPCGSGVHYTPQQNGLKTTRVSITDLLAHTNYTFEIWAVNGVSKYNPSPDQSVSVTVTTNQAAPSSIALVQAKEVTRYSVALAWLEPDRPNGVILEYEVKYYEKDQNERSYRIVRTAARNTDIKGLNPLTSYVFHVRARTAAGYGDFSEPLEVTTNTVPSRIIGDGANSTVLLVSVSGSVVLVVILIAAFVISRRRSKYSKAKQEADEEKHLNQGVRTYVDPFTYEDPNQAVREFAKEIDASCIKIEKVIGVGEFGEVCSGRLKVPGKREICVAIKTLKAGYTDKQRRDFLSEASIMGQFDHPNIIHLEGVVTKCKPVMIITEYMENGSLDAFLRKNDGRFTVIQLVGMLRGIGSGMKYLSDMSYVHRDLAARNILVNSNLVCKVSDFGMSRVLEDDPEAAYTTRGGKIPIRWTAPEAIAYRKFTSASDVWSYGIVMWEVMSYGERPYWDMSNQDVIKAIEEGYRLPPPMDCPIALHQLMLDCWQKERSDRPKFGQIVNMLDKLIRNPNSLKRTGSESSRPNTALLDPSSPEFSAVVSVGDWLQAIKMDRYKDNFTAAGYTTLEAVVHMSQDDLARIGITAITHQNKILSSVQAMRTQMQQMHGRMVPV

With `CC(C)[C@H](NC(=O)[C@H](C)NC(=O)[C@H](Cc1ccc(O)cc1)NC(=O)[C@@H]1CCCN1C(=O)CCN)C(=O)N[C@@H](Cc1ccc(O)cc1)C(=O)N[C@@H](CCCNC(=N)N)C(=O)N1CC[C@@H]1C(=O)N[C@@H](CO)C(=O)N[C@@H](Cc1c[nH]c2ccccc12)C(=O)N[C@@H](CO)C(=O)N[C@@H](C)C(N)=O`, the outcome in assay [1] was inactive.

For `CC(C)[C@H](NC(=O)[C@H](C)NC(=O)[C@H](Cc1ccc(O)cc1)NC(=O)[C@@H]1CCCN1C(=O)CCN)C(=O)N[C@@H](Cc1ccc(O)cc1)C(=O)N[C@@H](CCCNC(=N)N)C(=O)N1CC[C@H]1C(=O)N[C@@H](CO)C(=O)N[C@@H](Cc1c[nH]c2ccccc12)C(=O)N[C@@H](CO)C(=O)N[C@@H](C)C(N)=O`, the result in assay [1] was inactive.

For `CC(C)[C@H](NC(=O)[C@H](C)NC(=O)[C@H](Cc1ccc(O)cc1)NC(=O)[C@@H]1CCCN1C(=O)CCN)C(=O)N[C@@H](Cc1ccc(O)cc1)C(=O)N[C@@H](CCCNC(=N)N)C(=O)N[C@H]1CC[C@@H]1C(=O)N[C@H](CO)C(=O)N[C@@H](Cc1c[nH]c2ccccc12)C(=O)N[C@@H](CO)C(=O)N[C@@H](C)C(N)=O`, the outcome in assay [1] was inactive.

For `CC(C)[C@H](NC(=O)[C@H](CS)NC(=O)[C@H](Cc1ccc(O)cc1)NC(=O)[C@@H]1CCCN1C(=O)CCN)C(=O)N[C@@H](Cc1ccc(O)cc1)C(=O)N[C@@H](CCCNC(=N)N)C(=O)NCCC(=O)N[C@@H](CO)C(=O)N[C@@H](Cc1cc2ccccc2[nH]1)C(=O)N[C@@H](CO)C(=O)N[C@@H](CS)C(N)=O`, the outcome in assay [2] was inactive.

As for `CC(C)[C@H](NC(=O)[C@H](C)NC(=O)[C@H](Cc1ccc(O)cc1)NC(=O)[C@@H]1CCCN1C(=O)CCN)C(=O)N[C@@H](Cc1ccc(O)cc1)C(=O)N[C@@H](CCCNC(=N)N)C(=O)N1CC(C(=O)N[C@@H](CO)C(=O)N[C@@H](Cc2c[nH]c3ccccc23)C(=O)N[C@@H](CO)C(=O)N[C@@H](C)C(N)=O)C1` (H-[βAla]PYAVYR[Azetidine3carboxylic]SWSA-NH2), the outcome in assay [1] was inactive.

In the case of `CC(C)[C@H](NC(=O)[C@H](C)NC(=O)[C@H](Cc1ccc(O)cc1)NC(=O)[C@@H]1CCCN1C(=O)CCN)C(=O)N[C@@H](Cc1ccc(O)cc1)C(=O)N[C@@H](CCCNC(=N)N)C(=O)N1CCC[C@H](C(=O)N[C@@H](CO)C(=O)N[C@@H](Cc2c[nH]c3ccccc23)C(=O)N[C@@H](CO)C(=O)N[C@@H](C)C(N)=O)C1` (H-[βAla]PYAVYR[X2]SWSA-NH2), the outcome in assay [1] was inactive.

Regarding `CC(C)[C@H](NC(=O)[C@H](C)NC(=O)[C@H](Cc1ccc(O)cc1)NC(=O)[C@@H]1CCCN1C(=O)CCN)C(=O)N[C@@H](Cc1ccc(O)cc1)C(=O)N[C@@H](CCCNC(=N)N)C(=O)N1CC[C@@H](C(=O)N[C@@H](CO)C(=O)N[C@@H](Cc2c[nH]c3ccccc23)C(=O)N[C@@H](CO)C(=O)N[C@@H](C)C(N)=O)C1` (H-[βAla]PYAVYR[βPro(3R)]SWSA-NH2), the result in assay [1] was inactive.

For the molecule `CC(C)[C@H](NC(=O)[C@H](C)NC(=O)[C@H](Cc1ccc(O)cc1)NC(=O)[C@@H]1CCCN1C(=O)CCN)C(=O)N[C@@H](Cc1ccc(O)cc1)C(=O)N[C@@H](CCCNC(=N)N)C(=O)N1CC[C@H](C(=O)N[C@@H](CO)C(=O)N[C@@H](Cc2c[nH]c3ccccc23)C(=O)N[C@@H](CO)C(=O)N[C@@H](C)C(N)=O)C1` (H-[βAla]PYAVYR[βPro(3S)]SWSA-NH2), the result in assay [1] was inactive.

(Values after ChEMBL document CHEMBL6078699, “Constrained β-Hairpins Targeting the EphA4 Ligand Binding Domain” (J Med Chem, 2024).)
